Results on 30 compounds are retold here after ChEMBL document CHEMBL1155889, “Structure-activity relationship studies on vitamin D lactam derivatives as vitamin D receptor antagonist” (Bioorg Med Chem Lett, 2008).

Assay [1] addresses T1, Vitamin D3 receptor (Gallus gallus) (UniProt O42392).
T1 sequence (whole entry): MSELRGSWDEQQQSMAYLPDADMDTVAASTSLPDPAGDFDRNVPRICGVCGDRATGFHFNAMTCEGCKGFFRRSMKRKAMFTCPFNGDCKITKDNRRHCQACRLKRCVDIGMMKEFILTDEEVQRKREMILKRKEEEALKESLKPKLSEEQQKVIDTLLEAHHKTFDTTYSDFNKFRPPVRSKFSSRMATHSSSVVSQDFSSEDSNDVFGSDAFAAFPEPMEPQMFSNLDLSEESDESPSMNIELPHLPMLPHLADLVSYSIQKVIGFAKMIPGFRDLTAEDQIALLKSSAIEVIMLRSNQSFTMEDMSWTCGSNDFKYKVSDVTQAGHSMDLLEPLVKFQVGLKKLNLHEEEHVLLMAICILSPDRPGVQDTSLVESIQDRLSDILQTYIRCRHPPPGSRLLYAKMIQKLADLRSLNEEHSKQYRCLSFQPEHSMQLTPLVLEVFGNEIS
Nature of the assay: Displacement of [3H]1,25-(OH)2-D3 from chick intestinal VDR relative to 1,25-(OH)2-D3.

The target in assay [2] is T2, Vitamin D3 receptor (Homo sapiens) (UniProt P11473).
T2 sequence (whole entry): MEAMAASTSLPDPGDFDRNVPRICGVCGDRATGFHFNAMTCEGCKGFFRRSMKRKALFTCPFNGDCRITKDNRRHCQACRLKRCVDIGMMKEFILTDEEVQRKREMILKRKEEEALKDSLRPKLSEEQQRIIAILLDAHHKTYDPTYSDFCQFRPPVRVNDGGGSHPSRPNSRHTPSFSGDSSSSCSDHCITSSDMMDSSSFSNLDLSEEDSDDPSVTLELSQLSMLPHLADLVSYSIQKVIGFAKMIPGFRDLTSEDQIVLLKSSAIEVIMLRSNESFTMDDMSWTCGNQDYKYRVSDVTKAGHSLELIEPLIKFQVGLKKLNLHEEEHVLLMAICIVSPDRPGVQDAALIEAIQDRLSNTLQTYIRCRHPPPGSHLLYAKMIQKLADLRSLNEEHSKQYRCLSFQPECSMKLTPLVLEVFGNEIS
As to the kind of experiment: Antagonist activity at VDR in human HL60 cells assessed as effect on 1,25-(OH)2-D3-induced cell differentiation at 1 uM by NBT assay. It counts as functional, cell-based. The conditions noted are these: HL-60.

Assay [3] addresses T2, Vitamin D3 receptor (Homo sapiens). As to the kind of experiment: Antagonist activity at VDR in human HL60 cells assessed as effect on 1,25-(OH)2-D3-induced cell differentiation at 3 uM by NBT assay. It counts as functional, cell-based. The note with it: HL-60.
Assay [4] has the same target. Nature of the assay: Agonist activity at human VDR expressed in monkey COS7 cells at <10 uM by luciferase reporter gene assay. It counts as functional, cell-based. The conditions noted are these: COS-7.

Active and inactive are the calls of the source. The calls are words filed in the database; no cut-off is given here.

The compound `C=C1/C(=C\C=C2/CCC[C@]3(C)[C@@H]([C@H](C)C[C@@H]4C[C@@](C)(O)C(=O)N4CCc4cc(OC)cc(OC)c4)CC[C@@H]23)C[C@@H](O)C[C@@H]1O` showed a relative binding affinity (RBA) in assay [1] of 284. Also, in assay [2], the result was inactive. Compound `C=C1/C(=C\C=C2/CCC[C@]3(C)[C@@H]([C@H](C)C[C@H]4C[C@](C)(O)C(=O)N4CCCc4cc(C(F)(F)F)cc(C(F)(F)F)c4)CC[C@@H]23)C[C@@H](O)C[C@@H]1O` showed a relative binding affinity (RBA) in assay [1] of 181. Moreover, in assay [2], the result was inactive. Consider `C=C1/C(=C\C=C2/CCC[C@]3(C)[C@@H]([C@H](C)C[C@H]4C[C@](C)(O)C(=O)N4CCc4cc(C(F)(F)F)cc(C(F)(F)F)c4)CC[C@@H]23)C[C@@H](O)C[C@@H]1O`, for which the relative binding affinity (RBA) in assay [1] was 42. In addition, the result in assay [3] was inactive.

Compound `C=C1/C(=C\C=C2/CCC[C@]3(C)[C@@H]([C@H](C)C[C@@H]4C[C@@](C)(O)C(=O)N4Cc4cc(OC)cc(OC)c4)CC[C@@H]23)C[C@@H](O)C[C@@H]1O` had a relative binding affinity (RBA) in assay [1] of 185.

As to `C=C1/C(=C\C=C2/CCC[C@]3(C)[C@@H]([C@H](C)C[C@H]4C[C@](C)(O)C(=O)N4Cc4cc(C(F)(F)F)cc(C(F)(F)F)c4)CC[C@@H]23)C[C@@H](O)C[C@@H]1O`, the relative binding affinity (RBA) in assay [1] was 138. Also, the outcome in assay [3] was inactive.

On to `C=C1/C(=C\C=C2/CCC[C@]3(C)[C@@H]([C@H](C)C[C@@H]4C[C@@](C)(O)C(=O)N4CCCc4cc(C(F)(F)F)cc(C(F)(F)F)c4)CC[C@@H]23)C[C@@H](O)C[C@@H]1O`, for which, in assay [1], the relative binding affinity (RBA) was less than 5400. Also, the outcome in assay [2] was inactive.

With `C=C1/C(=C\C=C2/CCC[C@]3(C)[C@@H]([C@H](C)C[C@H]4C[C@](C)(O)C(=O)N4Cc4cc(O)cc(O)c4)CC[C@@H]23)C[C@@H](O)C[C@@H]1O`, in assay [1], the relative binding affinity (RBA) was 9.6. The outcome in assay [2] and in assay [4] was inactive. As to `C=C1/C(=C\C=C2/CCC[C@]3(C)[C@@H]([C@H](C)C[C@H]4C[C@](C)(O)C(=O)N4CCc4cc(OC)cc(OC)c4)CC[C@@H]23)C[C@@H](O)C[C@@H]1O`, the relative binding affinity (RBA) in assay [1] is 12. In assay [1], `C=C1/C(=C\C=C2/CCC[C@]3(C)[C@@H]([C@H](C)C[C@H]4C[C@](C)(O)C(=O)N4Cc4cc(OCCC)cc(OCCC)c4)CC[C@@H]23)C[C@@H](O)C[C@@H]1O` had a relative binding affinity (RBA) of 11.9. In assay [1], `C=C1/C(=C\C=C2/CCC[C@]3(C)[C@@H]([C@H](C)C[C@H]4C[C@](C)(O)C(=O)N4Cc4ccccc4)CC[C@@H]23)C[C@@H](O)C[C@@H]1O` gave a relative binding affinity (RBA) of 36.4. As for `C=C1/C(=C\C=C2/CCC[C@]3(C)[C@@H]([C@H](C)C[C@@H]4C[C@](C)(O)C(=O)N4CCc4cc(C(F)(F)F)cc(C(F)(F)F)c4)CC[C@@H]23)C[C@@H](O)C[C@@H]1O`, the relative binding affinity (RBA) in assay [1] stood at 757. The outcome in assay [3] was inactive. In assay [1], `C=C1/C(=C\C=C2/CCC[C@]3(C)[C@@H]([C@H](C)C[C@H]4C[C@](C)(O)C(=O)N4CCCc4cc(OC)cc(OC)c4)CC[C@@H]23)C[C@@H](O)C[C@@H]1O` had a relative binding affinity (RBA) of 57. In assay [1], `C=C1/C(=C\C=C2/CCC[C@]3(C)[C@@H]([C@H](C)C[C@@H]4C[C@](C)(O)C(=O)N4Cc4cc(OC)cc(OC)c4)CC[C@@H]23)C[C@@H](O)C[C@@H]1O` returned a relative binding affinity (RBA) of 60. For `C=C1/C(=C\C=C2/CCC[C@]3(C)[C@@H]([C@H](C)C[C@H]4C[C@@](C)(O)C(=O)N4CCc4cc(C(F)(F)F)cc(C(F)(F)F)c4)CC[C@@H]23)C[C@@H](O)C[C@@H]1O`, the relative binding affinity (RBA) in assay [1] was 1180. Moreover, the result in assay [3] was inactive. `C=C1/C(=C\C=C2/CCC[C@]3(C)[C@@H]([C@H](C)C[C@@H]4C[C@](C)(O)C(=O)N4Cc4cc(C(F)(F)F)cc(C(F)(F)F)c4)CC[C@@H]23)C[C@@H](O)C[C@@H]1O` came in with a relative binding affinity (RBA) in assay [1] of less than 1520. Moreover, in assay [3], the outcome was inactive. For `C=C1/C(=C\C=C2/CCC[C@]3(C)[C@@H]([C@H](C)C[C@@H]4C[C@@](C)(O)C(=O)N4Cc4cc(C(F)(F)F)cc(C(F)(F)F)c4)CC[C@@H]23)C[C@@H](O)C[C@@H]1O`, the relative binding affinity (RBA) in assay [1] was less than 1520. The result in assay [3] was inactive. Regarding `C=C1/C(=C\C=C2/CCC[C@]3(C)[C@@H]([C@H](C)C[C@@H]4C[C@](C)(O)C(=O)N4CCCc4cc(OC)cc(OC)c4)CC[C@@H]23)C[C@@H](O)C[C@@H]1O`, the relative binding affinity (RBA) in assay [1] was less than 1520. Further, the outcome in assay [3] was inactive.

As for `C=C1/C(=C\C=C2/CCC[C@]3(C)[C@@H]([C@H](C)C[C@H]4C[C@@](C)(O)C(=O)N4Cc4cc(OC)cc(OC)c4)CC[C@@H]23)C[C@@H](O)C[C@@H]1O`, in assay [1], the relative binding affinity (RBA) was 131. In assay [1], `C=C1/C(=C\C=C2/CCC[C@]3(C)[C@@H]([C@H](C)C[C@@H]4C[C@](C)(O)C(=O)N4CCCc4cc(C(F)(F)F)cc(C(F)(F)F)c4)CC[C@@H]23)C[C@@H](O)C[C@@H]1O` returned a relative binding affinity (RBA) of less than 5400. Also, the outcome in assay [2] was inactive.

In the case of `C=C1/C(=C\C=C2/CCC[C@]3(C)[C@@H]([C@H](C)C[C@@H]4C[C@@](C)(O)C(=O)N4CCCc4cc(OC)cc(OC)c4)CC[C@@H]23)C[C@@H](O)C[C@@H]1O`, the relative binding affinity (RBA) in assay [1] is less than 1520. The result in assay [3] was inactive. `C=C1/C(=C\C=C2/CCC[C@]3(C)[C@@H]([C@H](C)C[C@@H]4C[C@](C)(O)C(=O)N4CCc4cc(OC)cc(OC)c4)CC[C@@H]23)C[C@@H](O)C[C@@H]1O` showed a relative binding affinity (RBA) in assay [1] of less than 1520. The outcome in assay [2] was inactive. The compound `C=C1/C(=C\C=C2/CCC[C@]3(C)[C@@H]([C@H](C)C[C@@H]4C[C@@](C)(O)C(=O)N4CCc4cc(C(F)(F)F)cc(C(F)(F)F)c4)CC[C@@H]23)C[C@@H](O)C[C@@H]1O` came in with a relative binding affinity (RBA) in assay [1] of 236. The result in assay [3] was inactive. With `C=C1/C(=C\C=C2/CCC[C@]3(C)[C@@H]([C@H](C)C[C@H]4C[C@@](C)(O)C(=O)N4CCCc4cc(OC)cc(OC)c4)CC[C@@H]23)C[C@@H](O)C[C@@H]1O`, the relative binding affinity (RBA) in assay [1] is less than 1520. Further, in assay [3], the outcome was inactive. Turning to `C=C1/C(=C\C=C2/CCC[C@]3(C)[C@@H]([C@H](C)C[C@H]4C[C@](C)(O)C(=O)N4Cc4cc(OCC)cc(OCC)c4)CC[C@@H]23)C[C@@H](O)C[C@@H]1O`, in assay [1], the relative binding affinity (RBA) turned out to be 3.5. Take `C=C1/C(=C\C=C2/CCC[C@]3(C)[C@@H]([C@H](C)C[C@H]4C[C@@](C)(O)C(=O)N4CCCc4cc(C(F)(F)F)cc(C(F)(F)F)c4)CC[C@@H]23)C[C@@H](O)C[C@@H]1O`: the relative binding affinity (RBA) in assay [1] is less than 5400. Moreover, the outcome in assay [2] was inactive.

With `C=C1/C(=C\C=C2/CCC[C@]3(C)[C@@H]([C@H](C)C[C@H]4C[C@](C)(O)C(=O)N4Cc4cc(OCCCC)cc(OCCCC)c4)CC[C@@H]23)C[C@@H](O)C[C@@H]1O`, the relative binding affinity (RBA) in assay [1] turned out to be 18.2.

`C=C1/C(=C\C=C2/CCC[C@]3(C)[C@@H]([C@H](C)C[C@H]4C[C@](C)(O)C(=O)N4Cc4cc(OC)cc(OC)c4)CC[C@@H]23)C[C@@H](O)C[C@@H]1O` displayed a relative binding affinity (RBA) in assay [1] of 1.9. `C=C1/C(=C\C=C2/CCC[C@]3(C)[C@@H]([C@H](C)C[C@H]4C[C@](C)(O)C(=O)N4CCc4ccccc4)CC[C@@H]23)C[C@@H](O)C[C@@H]1O` displayed a relative binding affinity (RBA) in assay [1] of 12.5. As for `C=C1/C(=C\C=C2/CCC[C@]3(C)[C@@H]([C@H](C)C[C@H]4C[C@@](C)(O)C(=O)N4Cc4cc(C(F)(F)F)cc(C(F)(F)F)c4)CC[C@@H]23)C[C@@H](O)C[C@@H]1O`, the relative binding affinity (RBA) in assay [1] was less than 1520. Besides, the outcome in assay [3] was inactive. As for `C=C1/C(=C\C=C2/CCC[C@]3(C)[C@@H]([C@H](C)C[C@H]4C[C@@](C)(O)C(=O)N4CCc4cc(OC)cc(OC)c4)CC[C@@H]23)C[C@@H](O)C[C@@H]1O`, the relative binding affinity (RBA) in assay [1] was less than 1520. Further, the outcome in assay [2] was inactive.
